# Test system: gastric emptying in rats
# Assay: Gastric emptying in rats (phenol red gel gavage)
# Type: in vivo, Male Harlan Sprague Dawley (HSD) rats
# Protocol: This experiment followed a modification of the method of Scarpignato, et al., Arch.
# Male Harlan Sprague Dawley (HSD) rats were used.
# The determination of gastric emptying by the method described below was performed after a fast of −20 hours to ensure that the stomach contained no chyme that would interfere with spectrophotometric absorbance measurements.
# Twenty minutes after gavage, rats were anesthetized using 5% halothane, the stomach exposed and clamped at the pyloric and lower esophageal sphincters using artery forceps, removed and opened into an alkaline solution which was made up to a fixed volume. Stomach content was derived from the intensity of the phenol red in the alkaline solution, measured by absorbance at a wavelength of 560 nm. In separate experiments on 7 rats, the stomach and small intestine were both excised and opened into an alkaline solution. […] To account for a maximal dye recovery of less than 100%, percent of stomach contents remaining after 20 min were expressed as a fraction of the gastric contents recovered from control rats sacrificed immediately after gavage in the same experiment. Percent gastric contents remaining=(absorbance at 20 min)/(absorbance at 0 mm)×100.
# In baseline studies, with no drug treatment, gastric emptying over 20 min was determined.
substance,measurement,setting,value
exendin-4 acid: exendin agonist; synthesized according to standard peptide synthesis methods,EC50 (inhibition of gastric emptying),"conscious rats, gastric contents remaining 20 min after gavage, dose-response",0.12 µg
same,Inhibition of gastric emptying (in words),"rats, FIG. 6 and Table II",potent inhibitors of gastric emptying
